Laboratory results: patent US7902237B2, “Heterocyclic compounds as pharmaceutical agents” (Exelixis, Inc., priority 2004, dated 2011)
Where two headings read alike, the source gives them in different places.

How the values were obtained:
[1] = molecular target: T1, full length human farnesoid X receptor (Homo sapiens, UniProt Q96RI1); experiment: farnesoid X receptor/ECREx7 co-transfection assay; format: cell-based; details: for EC50: CV-1 cells; for Emax: agonist efficacy relative to chenodeoxycholic acid (CDCA) maximum response
T1 construct: CMX-farnesoid X receptor (full length human farnesoid X receptor); expressed in transfected cells; host or cells: CV-1 African Green Monkey Kidney cells
T1 sequence (Q96RI1 1-472 isoform Q96RI1-2): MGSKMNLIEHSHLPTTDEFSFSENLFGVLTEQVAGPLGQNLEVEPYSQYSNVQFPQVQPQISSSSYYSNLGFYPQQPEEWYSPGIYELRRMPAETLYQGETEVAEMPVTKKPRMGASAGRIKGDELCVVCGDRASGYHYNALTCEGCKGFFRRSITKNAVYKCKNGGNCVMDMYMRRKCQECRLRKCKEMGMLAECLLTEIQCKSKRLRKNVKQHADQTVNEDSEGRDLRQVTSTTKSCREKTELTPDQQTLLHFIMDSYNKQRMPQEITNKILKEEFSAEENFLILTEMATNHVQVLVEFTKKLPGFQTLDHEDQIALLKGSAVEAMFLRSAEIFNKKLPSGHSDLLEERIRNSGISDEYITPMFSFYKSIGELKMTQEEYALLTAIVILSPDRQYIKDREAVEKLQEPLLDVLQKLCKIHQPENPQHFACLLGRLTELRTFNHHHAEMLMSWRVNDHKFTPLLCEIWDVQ
T1 sequence (P19793 1-462 partner): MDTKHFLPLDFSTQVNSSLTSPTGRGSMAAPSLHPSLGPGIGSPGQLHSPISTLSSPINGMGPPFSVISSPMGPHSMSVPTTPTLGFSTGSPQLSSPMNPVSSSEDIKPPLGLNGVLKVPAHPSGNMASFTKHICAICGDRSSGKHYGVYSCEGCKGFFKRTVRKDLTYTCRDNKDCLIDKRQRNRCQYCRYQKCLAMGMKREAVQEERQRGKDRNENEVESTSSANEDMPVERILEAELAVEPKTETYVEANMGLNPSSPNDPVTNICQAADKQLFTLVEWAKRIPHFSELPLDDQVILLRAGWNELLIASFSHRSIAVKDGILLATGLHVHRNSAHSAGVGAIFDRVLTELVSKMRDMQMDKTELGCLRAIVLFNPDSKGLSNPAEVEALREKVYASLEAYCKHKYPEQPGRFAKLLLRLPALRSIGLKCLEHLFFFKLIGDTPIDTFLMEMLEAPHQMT
Experimental: (§1) The basic co-transfection protocol for measuring the farnesoid X receptor activity is as follows. CV-1 African Green Monkey Kidney cells were plated 24 hours before transfection to achieve approximately 70-80 percent confluency. Cells were transfected with the following expression vectors, CMX-farnesoid X receptor (full length human farnesoid X receptor), CMX-7RXRα (full length human RXR), Luc12 (ECREx7-Tk-Luciferase) luciferase reporter gene construct. (See WO 00/76523, Venkateswaran et al., (2000) J. Biol. Chem. 275 14700-14707). A CMX-β-Galactosidase expression vector was used as a transfection control. The transfection reagent used was DOTAP (Boehringer Mannheim). Cells were incubated with the DOTAP/DNA mixture for 5 hours after which the cells were harvested and plated onto either 96 well or 384 well plates containing the appropriate concentration of test compound. The assay was allowed to continue for an additional 18-20 hours, after which the cells were lysed, with lysis buffer (1% triton X 100, 10% glycerol, 5 mM Dithiothreitol, 1 mM EGTA, 25 mM Tricine, pH 7.8) and the luciferase activity measured in the presence of Luciferase assay buffer (0.73 mM ATP, 22.3 mM Tricine, 0.11 mM EGTA, 0.55 mM Luciferin, 0.15 mM Coenzyme A, 0.5 mM HEPES, 10 mM Magnesium sulphate) on a standard luminomter plate reader (PE Biosystems, NorthStar Reader), using recommended operating instructions and conditions
(§2) Both the farnesoid X receptor/ECREx7 co-transfection assay (Example 9) and the TR-FRET assay (Example 8) can be used to establish the EC50/IC50 values for potency and percent activity or inhibition for efficacy. Efficacy defines the activity of a compound relative to a high control (chenodeoxycholic acid, CDCA) or a low control (DMSO/vehicle). The dose response curves are generated from an 8 point curve with concentrations differing by ½ LOG units. Each point represents the average of 4 wells of data from a 384 well plate. The curve for the data is generated by using the equation: Y=Bottom+(Top−Bottom)/(1+10^((Log EC50−X)*HillSlope))
The EC50/IC50 is therefore defined as the concentration at which an agonist or antagonist elicits a response that is half way between the Top (maximum) and Bottom (baseline) values. The EC50/IC50 values represented are the averages of at least 3 independent experiments. The determination of the relative efficacy or % control for an agonist is by comparison to the maximum response achieved by chenodeoxycholic acid that is measured individually in each dose response experiment. […]

[2] = molecular target: T2, farnesoid X receptor (Homo sapiens, UniProt Q96RI1); experiment: one or more of the in vitro assays described herein (TR-FRET assay and/or co-transfection assay); details: for Emax: agonist efficacy relative to CDCA, read-out: efficacy (first value, goes with EC50); for IC50: antagonist mode against CDCA, read-out: IC50 (apparent partial agonist activity); for EC50: read-out: EC50 (apparent partial agonist activity)
T2 sequence (Q96RI1 258-485): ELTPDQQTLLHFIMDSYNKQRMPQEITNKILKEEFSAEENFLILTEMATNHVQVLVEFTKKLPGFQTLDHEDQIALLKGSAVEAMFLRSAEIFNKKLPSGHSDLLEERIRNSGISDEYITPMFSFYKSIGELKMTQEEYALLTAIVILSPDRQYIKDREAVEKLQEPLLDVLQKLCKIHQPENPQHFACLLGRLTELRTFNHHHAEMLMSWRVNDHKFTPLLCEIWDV
Experimental: The TR-FRET assay was performed by incubating 8 nM of GST-farnesoid X receptor-LBD (comprising […] fused in frame to the farnesoid X receptor ligand binding domain, (amino acids 244-471 of the human farnesoid X receptor)), 8 nM of Europium-labeled anti-GST antibody (Wallac/PE Life Sciences Cat#AD0064), 16 nM biotin-SRC-1 peptide [5′-biotin-[…]-CONH2], 20 nM APC-SA [allophycocyanin conjugated streptavidin] (Wallac/PE Life Sciences, Cat# AD0059A) in FRET assay buffer (20 mM KH2PO4/K2HPO4 (pH 7.3), 150 mM NaCl, 2 mM CHAPS, 2 mM EDTA, 1 mM DTT) in the presence of the test compound(s) for 2-4 hours at room temperature in a 384 well assay plate. Data was collected using an LJL Analyst using the standard operating instructions and conditions with readings at emission wavelengths of 615 nm and 665 nm after a delay of 65 μs and an excitation wavelength of 330 nm.
as §1, §2
The EC50/IC50 is therefore defined as the concentration at which an agonist or antagonist elicits a response that is half way between the Top (maximum) and Bottom (baseline) values. The EC50/IC50 values represented are the averages of at least 3 independent experiments. The determination of the relative efficacy or % control for an agonist is by comparison to the maximum response achieved by chenodeoxycholic acid that is measured individually in each dose response experiment.
For the antagonist assay, CDCA is added to each well of a 384 well plate to elicit a response. The % inhibition for each antagonist is therefore a measurement of the inhibition of the activity of CDCA. In this example, 100% inhibition would indicate that the activity of CDCA has been reduced to baseline levels, defined as the activity of the assay in the presence of DMSO only.

[3] = read-out: agonist activity EC50

| Structure (SMILES) | EC50 [1, 3] [nM] | Emax [1] [%] | Emax [2] [%] | IC50 [2] [nM] | EC50 [2] [nM] | EC50 ([1]; read-out: agonist activity) [nM] |
| --- | --- | --- | --- | --- | --- | --- |
| CCNc1ccc(C(C)=O)cc1/N=C1\S/C(=C\c2ccco2)C(=O)N1Cc1ccccc1 [No. 24, (2Z,5Z)-2-{[5-acetyl-2-(ethylamino)phenyl]imino}-5-(furan-2-ylmethylidene)-3-(phenylmethyl)-1,3-thiazolidin-4-one] | ≤ 1000 | 50 to 100 | – | – | – | – |
| CCNc1ccc(C#N)cc1/N=C1\S/C(=C\N2CCc3ccccc32)C(=O)N1Cc1ccccc1 [No. 5, 3-{[(2Z,5Z)-5-(2,3-dihydro-1H-indol-1-ylmethylidene)-4-oxo-3-(phenylmethyl)-1,3-thiazolidin-2-ylidene]amino}-4-(ethylamino)benzonitrile] | – | ≥ 100 | – | – | – | < 200 |
| CC(=O)Nc1ccc(/N=C2\S/C(=C\N3CCc4ccccc43)C(=O)N2Cc2ccco2)cc1 [No. 8, N-(4-{[(2Z,5Z)-5-(2,3-dihydro-1H-indol-1-ylmethylidene)-3-(furan-2-ylmethyl)-4-oxo-1,3-thiazolidin-2-ylidene]amino}phenyl)acetamide] | ≤ 1000 | 50 to 100 | – | – | – | – |
| CCNc1ccc(C#N)cc1/N=C1\S/C(=C\N(C)c2ccc(OC)cc2)C(=O)N1Cc1ccccc1 [No. 12, 4-(ethylamino)-3-{[(2Z,5Z)-5-({methyl[4-(methyloxy)phenyl]amino}methylidene)-4-oxo-3-(phenylmethyl)-1,3-thiazolidin-2-ylidene]amino} benzonitrile] | – | – | 40 to 50 | 300 to 500 | ~1000 | – |
| CC(=O)c1cccc(/N=C2\S/C(=C\N3CCc4ccccc43)C(=O)N2Cc2ccco2)c1 [No. 7, (2Z,5Z)-2-[(3-acetylphenyl)imino]-5-(2,3-dihydro-1H-indol-1-ylmethylidene)-3-(furan-2-ylmethyl)-1,3-thiazolidin-4-one] | ≤ 1000 | 50 to 100 | – | – | – | – |

Results, then the compound that gave them:

| EC50 [1, 3] [nM] | Emax [1] [%] | Emax [2] [%] | IC50 [2] [nM] | EC50 [2] [nM] | EC50 ([1]; read-out: agonist activity) [nM] | Structure (SMILES) |
| --- | --- | --- | --- | --- | --- | --- |
| ≤ 1000 | 50 to 100 | 40 to 50 | 300 to 500 | ~1000 | – | CCNc1ccc(C(C)=O)cc1/N=C1\S/C(=C\N(C)Cc2ccccc2)C(=O)N1Cc1ccccc1 [No. 4, (2Z,5Z)-2-{[5-acetyl-2-(ethylamino)phenyl]imino}-5-{[methyl(phenylmethyl)amino]methylidene}-3-(phenylmethyl)-1,3-thiazolidin-4-one] |
| ≤ 1000 | 50 to 100 | – | – | – | – | CCNc1ccc(C(C)=O)cc1/N=C1\S/C(=C\N(C)CCc2ccccc2)C(=O)N1Cc1ccccc1 [No. 19, (2Z,5Z)-2-{[5-acetyl-2-(ethylamino)phenyl]imino}-5-{[methyl(2-phenylethyl)amino]methylidene}-3-(phenylmethyl)-1,3-thiazolidin-4-one] |
| – | ≥ 100 | – | – | – | < 200 | CCNc1ccc(C(C)=O)cc1/N=C1\S/C(=C\N(C)c2cccc(OC)c2)C(=O)N1Cc1ccccc1 [No. 15, (2Z,5Z)-2-{[5-acetyl-2-(ethylamino)phenyl]imino}-5-({methyl[3-(methyloxy)phenyl]amino}methylidene)-3-(phenylmethyl)-1,3-thiazolidin-4-one] |
| ≤ 1000 | 50 to 100 | – | – | – | – | CCNc1ccc(C(C)=O)cc1/N=C1\S/C(=C\c2ccccc2)C(=O)N1Cc1ccccc1 [No. 23] |
| – | > 100 | – | – | – | < 100 | CCNc1ccc(C(C)=O)cc1/N=C1\S/C(=C\N2CCc3ccccc32)C(=O)N1Cc1ccccc1 [No. 6, (2Z,5Z)-2-{[5-acetyl-2-(ethylamino)phenyl]imino}-5-(2,3-dihydro-1H-indol-1-ylmethylidene)-3-(phenylmethyl)-1,3-thiazolidin-4-one] |
| ≤ 1000 | 50 to 100 | – | – | – | – | CCNc1ccc(C(C)=O)cc1/N=C1\S/C(=C\N(C)c2ccccc2)C(=O)N1Cc1ccccc1 [No. 2, (2Z,5Z)-2-{[5-acetyl-2-(ethylamino)phenyl]imino}-5-{[methyl(phenyl)amino]methylidene)-3-(phenylmethyl)-1,3-thiazolidin-4-one] |
